The source of these data is ChEMBL document CHEMBL1138333, “Discovery of the first nonpeptidic, small-molecule, highly selective somatostatin receptor subtype 5 antagonists: a chemogenomics approach” (J Med Chem, 2007).

Structures are written as SMILES. pIC50, pKi: −log10 of the molar value. In brackets after ≈: the same amount, converted by molar mass.

The target in series [1] is Voltage-gated inwardly rectifying potassium channel KCNH2 (Homo sapiens, UniProt Q12809). Kind of series: Inhibition of hERG channel. It is filed as toxicity. (The hERG channel carries a current that helps repolarise heart muscle cells.)
Chain of Voltage-gated inwardly rectifying potassium channel KCNH2 (Q12809 whole entry): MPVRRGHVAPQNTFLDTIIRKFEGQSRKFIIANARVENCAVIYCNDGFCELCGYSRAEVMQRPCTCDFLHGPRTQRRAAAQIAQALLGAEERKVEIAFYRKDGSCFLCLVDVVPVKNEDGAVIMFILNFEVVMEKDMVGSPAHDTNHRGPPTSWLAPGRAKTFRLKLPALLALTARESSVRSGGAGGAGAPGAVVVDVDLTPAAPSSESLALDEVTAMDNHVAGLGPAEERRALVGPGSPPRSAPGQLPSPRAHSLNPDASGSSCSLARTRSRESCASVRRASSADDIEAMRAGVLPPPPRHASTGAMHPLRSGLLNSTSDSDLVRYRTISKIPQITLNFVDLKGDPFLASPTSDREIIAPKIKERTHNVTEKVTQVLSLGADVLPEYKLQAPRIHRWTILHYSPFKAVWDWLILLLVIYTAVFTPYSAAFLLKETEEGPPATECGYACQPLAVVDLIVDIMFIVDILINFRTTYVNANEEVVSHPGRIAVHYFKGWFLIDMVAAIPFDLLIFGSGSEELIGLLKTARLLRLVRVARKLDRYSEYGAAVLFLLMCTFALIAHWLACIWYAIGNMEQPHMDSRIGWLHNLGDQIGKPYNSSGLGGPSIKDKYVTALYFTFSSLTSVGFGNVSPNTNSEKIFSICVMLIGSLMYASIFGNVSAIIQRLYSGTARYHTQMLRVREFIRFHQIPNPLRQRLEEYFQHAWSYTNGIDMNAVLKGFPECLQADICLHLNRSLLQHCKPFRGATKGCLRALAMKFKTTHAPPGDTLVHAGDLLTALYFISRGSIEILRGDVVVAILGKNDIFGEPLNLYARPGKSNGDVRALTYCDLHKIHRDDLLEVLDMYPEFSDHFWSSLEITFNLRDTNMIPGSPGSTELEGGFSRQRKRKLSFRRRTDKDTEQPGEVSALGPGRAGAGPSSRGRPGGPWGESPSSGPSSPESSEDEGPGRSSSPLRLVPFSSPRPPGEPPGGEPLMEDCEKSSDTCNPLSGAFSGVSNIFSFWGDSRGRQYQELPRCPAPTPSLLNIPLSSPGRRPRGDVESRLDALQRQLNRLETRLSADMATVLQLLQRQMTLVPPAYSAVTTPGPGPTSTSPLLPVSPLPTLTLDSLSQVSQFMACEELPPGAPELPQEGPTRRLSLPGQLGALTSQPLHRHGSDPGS
Series [2] is described as follows: Solubility at pH 6.5 by lyophilisation solubility assay. The following applies: buffer. It is filed as physicochemical.
In series [3] the target is T1, Somatostatin receptor type 5 (Homo sapiens, UniProt P35346). Briefly: Antagonist activity at human SST5R expressed in CHO cells assessed as reversal of somatostatin-14 induced cAMP response. It is filed as functional, cell-based.
T1 sequence (P35346 whole entry): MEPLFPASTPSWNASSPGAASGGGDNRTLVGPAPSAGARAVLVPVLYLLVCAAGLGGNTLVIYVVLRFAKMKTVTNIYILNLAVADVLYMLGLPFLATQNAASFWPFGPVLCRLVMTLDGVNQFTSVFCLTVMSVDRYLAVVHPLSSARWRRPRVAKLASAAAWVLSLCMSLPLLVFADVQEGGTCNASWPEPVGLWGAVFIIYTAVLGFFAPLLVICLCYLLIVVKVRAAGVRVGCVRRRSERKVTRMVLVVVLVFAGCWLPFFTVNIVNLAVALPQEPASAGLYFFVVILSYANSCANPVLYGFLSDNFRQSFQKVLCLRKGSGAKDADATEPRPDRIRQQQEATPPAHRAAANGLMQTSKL
The nature of series [4]: Passive membrane permeability by PAMPA. Particulars: read-out: permeability. It is filed as ADME. In general terms: PAMPA measures passive passage across an artificial lipid membrane.
For a further series, the target named is Histamine H1 receptor (Homo sapiens, UniProt P35367). Briefly: Binding affinity to histamine H1 receptor.
Chain of Histamine H1 receptor (P35367 whole entry): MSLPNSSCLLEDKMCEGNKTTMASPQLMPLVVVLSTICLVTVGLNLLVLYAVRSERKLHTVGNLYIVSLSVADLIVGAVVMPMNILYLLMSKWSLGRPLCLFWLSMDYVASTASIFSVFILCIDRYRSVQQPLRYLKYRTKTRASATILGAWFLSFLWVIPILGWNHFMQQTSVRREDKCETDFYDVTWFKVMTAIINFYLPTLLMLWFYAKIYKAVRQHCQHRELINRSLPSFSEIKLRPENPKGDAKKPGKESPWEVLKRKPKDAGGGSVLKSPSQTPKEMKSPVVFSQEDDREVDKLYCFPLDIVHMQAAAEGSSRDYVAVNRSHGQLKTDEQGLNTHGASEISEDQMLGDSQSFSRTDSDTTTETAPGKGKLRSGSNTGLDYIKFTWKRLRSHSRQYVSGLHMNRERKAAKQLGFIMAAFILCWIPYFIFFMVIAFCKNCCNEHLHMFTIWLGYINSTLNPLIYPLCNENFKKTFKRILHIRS
Series [5] addresses T1, Somatostatin receptor type 5. Briefly: Displacement of [125I]11-Tyr somatostatin-14 from human SST5R expressed in CHO cells. It is filed as cell-based.
A short description of series [6]: Distribution coefficient, log D at pH 7.4. It is filed as physicochemical. The following applies: octanol/water.
Series [7] addresses Somatostatin receptor type 3 (Homo sapiens, UniProt P32745). Briefly: Binding affinity to human SST3R.
For series [8], the target named is Somatostatin receptor type 2 (Homo sapiens, UniProt P30874). Briefly: Binding affinity to human SST2R.
Chain of Somatostatin receptor type 2 (P30874 whole entry): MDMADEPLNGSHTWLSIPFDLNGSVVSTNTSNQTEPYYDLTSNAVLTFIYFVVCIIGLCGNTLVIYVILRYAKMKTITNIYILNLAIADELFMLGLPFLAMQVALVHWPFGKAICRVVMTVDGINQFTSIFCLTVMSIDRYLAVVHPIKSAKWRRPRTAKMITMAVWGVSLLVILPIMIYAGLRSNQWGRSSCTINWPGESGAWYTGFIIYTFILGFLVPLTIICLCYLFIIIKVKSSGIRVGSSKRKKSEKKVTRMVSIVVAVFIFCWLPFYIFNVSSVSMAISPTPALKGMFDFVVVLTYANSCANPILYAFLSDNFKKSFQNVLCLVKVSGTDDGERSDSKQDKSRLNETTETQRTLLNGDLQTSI
Series [9] has as its target Somatostatin receptor type 4 (Homo sapiens, UniProt P31391). Briefly: Binding affinity to human SST4R.
In series [10] the target is Somatostatin receptor type 1 (Homo sapiens, UniProt P30872). Kind of series: Binding affinity to human SST1R.
Chain of Somatostatin receptor type 1 (P30872 whole entry): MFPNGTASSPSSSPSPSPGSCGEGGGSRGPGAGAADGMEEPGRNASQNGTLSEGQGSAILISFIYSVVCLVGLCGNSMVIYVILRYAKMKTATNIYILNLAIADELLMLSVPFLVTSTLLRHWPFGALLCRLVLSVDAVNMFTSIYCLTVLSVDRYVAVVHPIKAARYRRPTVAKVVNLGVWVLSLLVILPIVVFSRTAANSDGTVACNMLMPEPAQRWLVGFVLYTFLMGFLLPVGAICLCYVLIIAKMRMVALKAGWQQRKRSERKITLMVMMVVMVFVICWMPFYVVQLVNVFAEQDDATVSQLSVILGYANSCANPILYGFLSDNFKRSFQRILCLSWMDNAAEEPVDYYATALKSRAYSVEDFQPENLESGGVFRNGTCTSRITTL

Chain of Somatostatin receptor type 4 (P31391 whole entry): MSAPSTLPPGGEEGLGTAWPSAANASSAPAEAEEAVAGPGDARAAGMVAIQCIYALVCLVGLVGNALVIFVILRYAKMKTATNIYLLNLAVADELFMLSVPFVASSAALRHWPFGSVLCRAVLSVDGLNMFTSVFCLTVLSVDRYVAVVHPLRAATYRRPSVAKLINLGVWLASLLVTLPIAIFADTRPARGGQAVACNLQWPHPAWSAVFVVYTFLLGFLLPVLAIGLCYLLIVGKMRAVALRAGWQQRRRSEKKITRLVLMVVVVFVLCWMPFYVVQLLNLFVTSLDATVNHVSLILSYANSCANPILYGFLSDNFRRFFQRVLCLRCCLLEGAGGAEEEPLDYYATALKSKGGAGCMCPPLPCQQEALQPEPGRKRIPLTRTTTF
Chain of Somatostatin receptor type 3 (P32745 whole entry): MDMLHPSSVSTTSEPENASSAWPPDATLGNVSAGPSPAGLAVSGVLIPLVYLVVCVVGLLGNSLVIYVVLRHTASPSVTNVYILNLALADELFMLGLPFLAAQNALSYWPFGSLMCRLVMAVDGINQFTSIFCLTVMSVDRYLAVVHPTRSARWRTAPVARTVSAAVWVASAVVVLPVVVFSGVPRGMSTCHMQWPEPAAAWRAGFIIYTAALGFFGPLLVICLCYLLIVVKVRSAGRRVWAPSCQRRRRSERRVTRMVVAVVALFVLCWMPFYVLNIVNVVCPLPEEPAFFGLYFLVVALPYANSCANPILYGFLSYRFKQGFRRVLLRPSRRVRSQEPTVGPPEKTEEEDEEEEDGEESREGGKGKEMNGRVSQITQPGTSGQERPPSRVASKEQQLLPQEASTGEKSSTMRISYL

Take `CCOc1cc(CN2CCC(Nc3nc4ccccc4o3)CC2)ccc1OC`: the figures for the pIC50 in [1] and in series [3] were greater than 7.00 and 6.13, respectively. The compound further registered a solubility in series [2] of 130 µg/mL (≈ 341 µM). In addition, the Papp in series [4] stood at 4.44 ×10⁻⁶ cm/s. Further, the figures for the pKi (at Histamine H1 receptor; in series [5]) were 6.20 and 6.92, respectively. The logD in series [6] was 2.92.
In the case of `COc1ccc(CN2CCC(Nc3nc4ccccc4o3)CC2)cc1OCC(C)C`, the pKi in series [5] was 7.64.
On to `Fc1ccc(CCN2CCC(Nc3nc4ccccc4n3Cc3ccc(F)cc3)CC2)cc1`, for which the pKi in series [5] was less than 5.00.
For `Fc1ccc(Cn2c(NC3CCN(CC4CCc5ccccc5C4)CC3)nc3ccccc32)cc1` (stereo unspecified), the pKi in [5] is less than 5.00.
Compound `Fc1ccc(Cn2c(NC3CCN(CCCc4ccccc4)CC3)nc3ccccc32)cc1` had a negative-log Ki (pKi) in [5] of less than 5.00.
Compound `CCOc1cc(CN2CCC(Nc3nc4ccccc4o3)CC2)ccc1Cl` had a pKi in series [5] of 6.95.
In [5], `CCOc1cc(CN2CCC(Nc3nc4ccccc4o3)CC2)ccc1C` gave a negative logarithm of the Ki (pKi) of 7.43.
Take `CCOc1cc(CN2CCC(Nc3nc4ccccc4o3)CC2)ccc1OC(F)(F)F`: the pKi in series [5] is 6.28.
Still for that read-out and setting: under `Fc1ccc(Cn2c(NC3CCN(Cc4ccccc4)CC3)nc3ccccc32)cc1` stands 5.21; under `Fc1ccc(Cn2c(NC3CCN(Cc4ccc5c(c4)CCO5)CC3)nc3ccccc32)cc1`, 5.79.
`Fc1ccc(Cn2c(NC3CCN(Cc4ccc5[nH]ccc5c4)CC3)nc3ccccc32)cc1` showed a pKi in [5] of 5.40.
For the compound `CCOc1cc(CN2CCC(Nc3nc4cc(S(N)(=O)=O)ccc4o3)CC2)cc(OCC)c1N`, the negative-log Ki (pKi) was less than 5.00 in series [7]; less than 5.00 in series [8]; less than 5.00 in series [9]; 7.89 in series [5]; less than 5.00 in [10].
Take `CCOc1cc(CN2CCC(Nc3nc4ccccc4o3)CC2)ccc1O`: the pKi in series [5] was 7.18.
In series [5], `Cc1cccc2c(CN3CCC(Nc4nc5ccccc5n4Cc4ccc(F)cc4)CC3)c[nH]c12` had a pKi of 5.84.
Still for that read-out and setting: for `COc1cc(CN2CCC(Nc3nc4ccccc4s3)CC2)c(OC)c2ccccc12` the value was 6.17; for `COc1cc(CN2CCC(Nc3nc4ccccc4s3)CC2)ccc1O`, 5.29.
In turn, `CCOc1cc(CN2CCC(Nc3nc4ccccc4s3)CC2)ccc1O` had a pKi in series [5] of 6.83. This pKi is 1.54 log units higher than that of the compound before.
In [5], `CCOc1cc(CN2CCC(Nc3nc4ccccc4s3)CC2)ccc1OC` gave a pKi of 6.49.
With `COc1cc(CN2CCC(Nc3nc4ccccc4o3)CC2)c(OC)c2ccccc12`, in [5], the pKi was 6.10.
Same read-out and setting: for `CCOc1cc(CN2CCC(Nc3nc4cc(S(N)(=O)=O)ccc4o3)CC2)ccc1Cl` the value was 7.77.
Regarding `COc1ccc(CN2CCC(Nc3nc4ccccc4s3)CC2)cc1OC`, the pKi in [5] is 5.75.
With `CCCOc1cc(CN2CCC(Nc3nc4ccccc4o3)CC2)ccc1OC`, the pKi in [5] is 6.53.
On to `COc1ccc(CN2CCC(Nc3nc4ccccc4o3)CC2)cc1OC1CCCC1`, for which the pKi in [5] was 7.08.
The compound `CCOc1cc(CN2CCC(Nc3nc4ccccc4o3)CC2)ccc1F` showed a pKi in series [5] of 6.71. Compared with the last compound, the pKi is 0.37 log units lower.
Regarding `COc1cc(CN2CCC(Nc3nc4ccccc4n3Cc3ccc(F)cc3)CC2)c(OC)c2ccccc12`, the pKi in series [5] is 5.91.
`CCOc1cc(CN2CCC(Nc3nc4cc(S(N)(=O)=O)ccc4o3)CC2)ccc1OC`: the pIC50 in series [1] was 5.46. Moreover, the pKi in [5] was 6.73.
The compound `Fc1ccc(Cn2c(NC3CCN(CCc4ccc(OC(F)(F)F)cc4)CC3)nc3ccccc32)cc1` had a negative-log Ki (pKi) in series [5] of less than 5.00.
`COc1ccc(CN2CCC(Nc3nc4ccccc4n3Cc3ccc(F)cc3)CC2)cc1`: the negative logarithm of the Ki (pKi) in [5] was 5.40.
The same measure, in the same setting: for `Fc1ccc(Cn2c(NC3CCN(CCc4ccccc4)CC3)nc3ccccc32)cc1` the value was 5.30.
For the compound `COc1ccc(CCN2CCC(Nc3nc4ccccc4n3Cc3ccc(F)cc3)CC2)cc1` [ASTEMIZOLE], in series [5], the pKi was 5.39.

The term pIC50 denotes −log10 of the IC50, conventionally taken in molar units. As usually defined, the solubility is the dissolved amount per volume that the medium holds. A higher solubility goes with a readily soluble substance. What is called pKi is −log10 of the Ki, conventionally taken in molar units. Broadly, the logD is the decadic logarithm of the distribution of all forms, ionised or not, between an organic phase and buffer at a given pH.
